Experimental data published in patent EP1935986B1, “Luminogenic and fluorogenic compounds and methods to detect molecules or conditions” (priority 2005, dated 2006).

Assays:
[1] = biological target: T1, QuantiLum Luciferase (Photinus pyralis, UniProt P08659); test: pH dependence of firefly luciferase luminescence with luciferin or 5'-fluoroluciferin; format: biochemical; conditions: for Absolute Luminescence: 630 µM substrate
T1 construct: purchased Promega Corporation E170
Protocol: Aliquots of these solutions were then placed into tubes and buffers were added to 80 mM.
Luminescent reactions were initiated by combining 100 µl of the luciferase-containing solution and 100 µl of the luciferase detection reagents. Luminescence was integrated over 1 second per sample using the Veritas plate luminometer (Turner BioSystems). N=3 for each result.
The average luminescence measured for each set of samples is listed in Table 50 (relative standard deviation ≤ 4.0%). […]

[2] = biological target: T1, QuantiLum Luciferase; test: Emission spectra of luciferase reactions with luciferin, 5'-fluoroluciferin, 7'-fluoroluciferin; format: biochemical, firefly; conditions: reagent pH 7.4
Protocol: All compounds except fluoroluciferin and ATP were purchased from Sigma Chemical. ATP was purchased from Amersham/Invitrogen.
Spectra were measured using 0.5s integration with 1 nm increments on a Spex Fluorolog.

[3] = biological target: T1, QuantiLum Luciferase; test: ATP titration of firefly luciferase reactions with luciferin and fluoroluciferins; format: biochemical; conditions: result in words
Protocol: All compounds except 5'-fluoroluciferin and DTT were purchased from Sigma Chemical. To some of this reagent 5 mM ATP (Amersham/Invitrogen) was added, then serially diluted by half-logs to 0.05 mM. Reactions were initiated by adding equal volumes (0.1 ml) of reagent and DMEM medium (Gibco/Invitrogen) containing 0.1% Prionex® (Pentapharm) and 1.4 x 10-5 mg/ml QuantiLum™ Luciferase (Promega Corporation).
For ATP titrations for 7'-fluoroluciferin, reagent was created containing 200 mM HEPES, 200 mM PIPES, 1 mM CDTA, 0.5% Tergitol NP-9, 0.03% Benzyl dodecyldimethyl ammonium bromide, 30 mM thiourea, 10 mM magnesium sulfate, and 0.15 mM 7'-fluoroluciferin. This solution was separated into 3 parts and pH of the reagents were 7.4, 7.2 and 6.7. To some of this reagent, 10 mM ATP (Amersham/Invitrogen) was added. The ATP was serially diluted by quarter-logs from 10 mM to 0.32 mM.
Reactions were initiated by adding equal volumes (0.03 ml) of reagent and DMEM medium (Gibco/Invitrogen) containing 0.1% Prionex® (Pentapharm) and 1.4 x 10-5 mg/ml QuantiLum™ Luciferase (Promega Corporation).
Luminescence was measured for 0.5 seconds per well using Berthold Orion luminometer.

[4] = tested on: luciferase; test: No-enzyme control: activity of luciferase towards the luciferin derivative (background luminescence); conditions: wild type microsomes instead of FMO 3
[5] = biological target: T2, human recombinant monoamine oxidase B (MAO B) (Homo sapiens, UniProt P27338); test: Two-step luminescent MAO assay with luciferin derivative; format: biochemical; conditions: fit of Tables 23-24 (TableCurve)
T2 construct: purchased Sigma Chemical Company M-7441; host or cells: baculovirus infected insect cells (microsomes)
T2 sequence (P27338 1-520): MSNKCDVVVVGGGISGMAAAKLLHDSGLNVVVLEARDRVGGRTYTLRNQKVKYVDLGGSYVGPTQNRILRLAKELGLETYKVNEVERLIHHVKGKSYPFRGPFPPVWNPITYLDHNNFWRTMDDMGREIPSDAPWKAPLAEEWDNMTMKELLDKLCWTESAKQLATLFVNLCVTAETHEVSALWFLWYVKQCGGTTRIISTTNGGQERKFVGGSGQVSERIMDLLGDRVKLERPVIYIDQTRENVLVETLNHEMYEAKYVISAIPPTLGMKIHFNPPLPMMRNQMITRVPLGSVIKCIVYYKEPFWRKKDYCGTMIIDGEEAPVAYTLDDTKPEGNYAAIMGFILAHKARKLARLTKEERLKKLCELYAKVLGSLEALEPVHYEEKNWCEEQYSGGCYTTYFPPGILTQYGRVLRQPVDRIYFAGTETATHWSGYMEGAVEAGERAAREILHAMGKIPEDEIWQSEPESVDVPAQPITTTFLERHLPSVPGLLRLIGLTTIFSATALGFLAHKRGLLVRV

[6] = tested on: human recombinant flavin-containing monooxygenase 3 (FMO 3); test: Two-step luminescent FMO assay with luciferin derivative; format: biochemical
[7] = biological target: T3, human recombinant monoamine oxidase A (MAO A) (Homo sapiens, UniProt P21397); test: Two-step luminescent MAO assay with luciferin derivative; conditions: for RLUmax: fit of Tables 23-24 (TableCurve)
T3 sequence (P21397 1-527): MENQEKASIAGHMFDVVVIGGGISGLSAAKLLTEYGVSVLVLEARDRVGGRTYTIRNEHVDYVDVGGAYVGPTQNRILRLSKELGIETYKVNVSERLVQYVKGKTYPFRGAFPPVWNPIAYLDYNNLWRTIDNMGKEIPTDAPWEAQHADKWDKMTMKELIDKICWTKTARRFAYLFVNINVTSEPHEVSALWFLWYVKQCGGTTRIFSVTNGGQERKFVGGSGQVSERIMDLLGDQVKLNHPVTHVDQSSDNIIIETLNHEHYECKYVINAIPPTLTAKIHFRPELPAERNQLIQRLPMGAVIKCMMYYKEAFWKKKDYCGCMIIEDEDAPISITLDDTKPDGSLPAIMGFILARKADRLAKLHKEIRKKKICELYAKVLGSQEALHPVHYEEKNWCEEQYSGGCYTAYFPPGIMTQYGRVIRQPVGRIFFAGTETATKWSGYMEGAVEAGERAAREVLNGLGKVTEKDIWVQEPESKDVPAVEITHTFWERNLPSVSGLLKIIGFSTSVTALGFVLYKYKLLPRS

[8] = biological target: T1, QuantiLum Luciferase; test: Scaffolds: light emission of luciferin derivatives with QuantiLum luciferase alone, + Co A, + DTT, + Co A and DTT; format: biochemical, firefly

T1 sequence (P08659 whole entry): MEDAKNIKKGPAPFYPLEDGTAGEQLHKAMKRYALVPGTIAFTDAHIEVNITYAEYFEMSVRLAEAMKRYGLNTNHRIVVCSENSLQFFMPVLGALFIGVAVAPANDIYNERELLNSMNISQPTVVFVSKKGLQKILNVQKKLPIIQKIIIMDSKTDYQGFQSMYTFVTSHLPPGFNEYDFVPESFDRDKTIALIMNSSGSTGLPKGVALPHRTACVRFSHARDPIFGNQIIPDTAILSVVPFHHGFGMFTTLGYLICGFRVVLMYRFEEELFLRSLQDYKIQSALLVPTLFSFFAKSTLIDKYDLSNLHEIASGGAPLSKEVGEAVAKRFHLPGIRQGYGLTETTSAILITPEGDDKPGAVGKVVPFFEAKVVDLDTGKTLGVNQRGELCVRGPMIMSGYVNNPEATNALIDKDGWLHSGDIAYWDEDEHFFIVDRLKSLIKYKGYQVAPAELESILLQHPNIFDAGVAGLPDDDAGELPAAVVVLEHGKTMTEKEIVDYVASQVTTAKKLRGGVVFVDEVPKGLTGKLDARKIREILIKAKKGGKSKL

## O=C(O)[C@H]1CSC(c2nc3cc(F)c(O)cc3s2)=N1 [5'-fluoroluciferin]
[1]; pH 6.900, MOPS
  Absolute Luminescence: 272,127 RLU
[1]; pH 6.9 to 8.3
  change of luminescence over the pH range tested: about 40%
[1]; pH 7.133, MOPS
  Absolute Luminescence: 325,337 RLU
[1]; pH 7.296, MOPS
  Absolute Luminescence: 331,515 RLU
[1]; pH 7.303, HEPES
  Absolute Luminescence: 323,456 RLU
[1]; pH 7.499, MOPS
  Absolute Luminescence: 334,288 RLU
[1]; pH 7.521, HEPES
  Absolute Luminescence: 360,308 RLU
[1]; pH 7.673, Tricine
  Absolute Luminescence: 351,411 RLU
[1]; pH 7.720, HEPES
  Absolute Luminescence: 378,927 RLU
[1]; pH 7.883, Tricine
  Absolute Luminescence: 357,883 RLU
[1]; pH 7.89 reagent
  decrease of luminescence when buffer changed from HEPES to tricine: 6%
[1]; pH 7.892, HEPES
  Absolute Luminescence: 377,498 RLU
[1]; pH 8.100, Tricine
  Absolute Luminescence: 357,041 RLU
[1]; pH 8.327, Tricine
  Absolute Luminescence: 317,030 RLU
[2]
  λmax of luminescence, blue-shifted from regular luciferin: approximately 25 nm
[2]; listed as 5' fluoroluciferin
  λmax of luminescence, blue-shifted from regular luciferin: about 10 nm
[3]
  ATP requirement of the luciferase reaction compared with luciferin: saturated with ATP at a higher concentration

## CNCCCOc1ccc2nc(C3=N[C@@H](C(=O)O)CS3)ccc2c1 [MAO-7, 6-(3-methylaminopropoxy)quinolinyl-lucifexin]
[4]; [MAO-7] 43 µM
  relative light units, control: 1043 RLUs
[4]; [MAO-7] 86 µM
  relative light units, control: 1585 RLUs
[4]; [MAO-7] 258 µM
  relative light units, control: 3592 RLUs
[4]; [MAO-7] 344 µM
  relative light units, control: 4486 RLUs
[4]; [MAO-7] 516 µM
  relative light units, control: 6137 RLUs
[4]; [MAO-7] 688 µM
  relative light units, control: 7213 RLUs
[5]
  RLUmax: 48
[6]; [MAO-7] 43 µM
  relative light units, FMO 3: 8220 RLUs
  relative light units, net FMO 3: 7177 RLUs
[6]; [MAO-7] 86 µM
  relative light units, FMO 3: 13646 RLUs
  relative light units, net FMO 3: 12061 RLUs
[6]; [MAO-7] 258 µM
  relative light units, FMO 3: 28987 RLUs
  relative light units, net FMO 3: 25395 RLUs
[6]; [MAO-7] 344 µM
  relative light units, FMO 3: 34036 RLUs
  relative light units, net FMO 3: 29550 RLUs
[6]; [MAO-7] 516 µM
  relative light units, FMO 3: 40329 RLUs
  relative light units, net FMO 3: 34192 RLUs
[6]; [MAO-7] 688 µM
  relative light units, FMO 3: 42707 RLUs
  relative light units, net FMO 3: 35494 RLUs
[6]; fit of Table 33, CHES pH 9.5
  Km: 200 ± 20 µM
[7]
  RLUmax: 750
[7]; result in words
  substrate specificity as indicated by the ratio RLUmax/Km: more specific substrate for MAO A

## NCCCOc1ccc2nc(C3=N[C@@H](C(=O)O)CS3)sc2c1 [MAO-3, 6-Aminopropoxyluciferin]
[5]
  RLUmax: 660
[8]; Derivative Conc. 1.07, Alone
  light emission values: 94583
[8]; Derivative Conc. 1.07, Co A
  light emission values: 122510
[8]; Derivative Conc. 1.07, Co A + DTT
  light emission values: 52637
[8]; Derivative Conc. 1.07, DTT
  light emission values: 111682
[8]; Derivative Conc. 3.13, Alone
  light emission values: 131633
[8]; Derivative Conc. 3.13, Co A
  light emission values: 176814
[8]; Derivative Conc. 3.13, Co A + DTT
  light emission values: 171233
[8]; Derivative Conc. 3.13, DTT
  light emission values: 200074
[8]; Derivative Conc. 6.25, Alone
  light emission values: 201597
[8]; Derivative Conc. 6.25, Co A
  light emission values: 321914
[8]; Derivative Conc. 6.25, Co A + DTT
  light emission values: 82531
[8]; Derivative Conc. 6.25, DTT
  light emission values: 348398
[8]; Derivative Conc. 12.5, Alone
  light emission values: 252130
[8]; Derivative Conc. 12.5, Co A
  light emission values: 467021
[8]; Derivative Conc. 12.5, Co A + DTT
  light emission values: 509896
[8]; Derivative Conc. 12.5, DTT
  light emission values: 525765
[8]; Derivative Conc. 25, Alone
  light emission values: 272608
[8]; Derivative Conc. 25, Co A
  light emission values: 588881
[8]; Derivative Conc. 25, DTT
  light emission values: 733675
[8]; Derivative Conc. 50, Alone
  light emission values: 179585
[8]; Derivative Conc. 50, Co A
  light emission values: 444494
[8]; Derivative Conc. 50, Co A + DTT
  light emission values: 865209
[8]; Derivative Conc. 50, DTT
  light emission values: 868903
[8]; Derivative Conc. 100, Alone
  light emission values: 348013
[8]; Derivative Conc. 100, Co A
  light emission values: 741882
[8]; Derivative Conc. 100, Co A + DTT
  light emission values: 1019425
[8]; Derivative Conc. 100, DTT
  light emission values: 994617
[7]
  RLUmax: 210
